Values joined by “and” are separate entries in the source; they are usually repeats but may differ in a detail not shown here. Identical values can stand only once. Inconclusive results and toxic doses are left out. How the source made its calls: active means survival T/C of 150% or more; inactive means T/C below 125% in these data.
Tested on: BALB/c mice, Madison 109 lung carcinoma i.m., survival
Experiment: NCI In Vivo Anticancer Drug Screen. Data for tumor model Madison 109 Lung Carcinoma (intramuscular) in BALB/CM mice
Conditions: endpoint: median survival time, higher = longer survival
Protocol: The antitumor activity of compounds was measured in mice bearing transplantable tumors. Survival or tumor size were measured and the results are expressed as the measurement made in the treated group (T) divided by the measurement made in the vehicle treated control group (C). The tumor model used in this assay is Madison 109 Lung Carcinoma (intramuscular) in BALB/CM mice

[1] = dose: 12.5 mg/kg/injection, schedule: Q01DX009 (ip), vehicle: saline with Tween-80
[2] = dose: 25.0 mg/kg/injection, schedule: Q01DX009 (ip), vehicle: saline with Tween-80
[3] = dose: 50.0 mg/kg/injection, schedule: Q01DX009 (ip), vehicle: saline with Tween-80
[4] = dose: 25.0 mg/kg/injection, schedule: Q01DX009 (ip), vehicle: saline
[5] = dose: 100.0 mg/kg/injection, schedule: Q01DX009 (ip), vehicle: saline
[6] = dose: 100.0 mg/kg/injection, schedule: Q01DX009 (ip), vehicle: saline with Tween-80
[7] = dose: 200.0 mg/kg/injection, schedule: Q01DX009 (ip), vehicle: saline with Tween-80
[8] = dose: 400.0 mg/kg/injection, schedule: Q01DX009 (ip), vehicle: saline with Tween-80

Measured: T/C

c1ccc([C@H]2CN3CCSC3=N2)cc1
inactive: dose: 5.0 mg/kg/injection, schedule: Q01DX009 (ip), vehicle: saline 94 % of control | dose: 10.0 mg/kg/injection, schedule: Q01DX009 (ip), vehicle: saline 96 % of control | dose: 20.0 mg/kg/injection, schedule: Q01DX009 (ip), vehicle: saline 103 % of control

ClC1=C(Cl)C2(Cl)C3C(Cl)C(Cl)CC3C1(Cl)C2(Cl)Cl (centres undefined)
inactive: dose: 6.25 mg/kg/injection, schedule: Q01DX009 (ip), vehicle: saline with Tween-80 110 % of control and 113 % of control | [1] 100 % of control and 120 % of control | [2] 89 % of control and 95 % of control | [3] 102 % of control and 116 % of control

CNNCc1ccc(C(=O)NC(C)C)cc1
inactive: [4] 116 % of control | [5] 114 % of control

CC(=O)Nc1ccc(/C=N/NC(N)=S)cc1
inactive: [2] 106 % of control and 108 % of control | [3] 94 % of control and 108 % of control | [6] 92 % of control and 124 % of control | [7] 89 % of control | [8] 113 % of control and 114 % of control

CN(C)C=O
inactive: dose: 12.5 mg/kg/injection, schedule: Q01DX009 (ip), vehicle: saline 102 % of control | [4] 101 % of control and 105 % of control | dose: 50.0 mg/kg/injection, schedule: Q01DX009 (ip), vehicle: saline 101 % of control and 115 % of control | [5] 92 % of control and 101 % of control and 120 % of control | dose: 200.0 mg/kg/injection, schedule: Q01DX009 (ip), vehicle: saline 96 % of control and 106 % of control | dose: 800.0 mg/kg/injection, schedule: Q01DX009 (ip), vehicle: saline 116 % of control and 120 % of control | dose: 1600.0 mg/kg/injection, schedule: Q01DX009 (ip), vehicle: saline 107 % of control

COc1cccc2c1C(=O)c1c(O)c3c(c(O)c1C2=O)C[C@@](O)(C(C)=O)C[C@@H]3OC1CC(N)C(O)C(C)O1 (some centres undefined)
inactive: dose: 0.12 mg/kg/injection, schedule: Q01DX009 (ip), vehicle: water 110 % of control | dose: 0.25 mg/kg/injection, schedule: Q01DX009 (ip), vehicle: water 102 % of control | dose: 0.5 mg/kg/injection, schedule: Q01DX009 (ip), vehicle: water 118 % of control | dose: 1.0 mg/kg/injection, schedule: Q01DX009 (ip), vehicle: water 118 % of control

ClC(Cl)=C(Cl)Cl
inactive: [3] 119 % of control | [6] 113 % of control | [7] 107 % of control

Nc1ccc(C(=O)O)c(O)c1
inactive: dose: 37.5 mg/kg/injection, schedule: Q01DX009 (ip), vehicle: saline with Tween-80 116 % of control | dose: 75.0 mg/kg/injection, schedule: Q01DX009 (ip), vehicle: saline with Tween-80 116 % of control | dose: 150.0 mg/kg/injection, schedule: Q01DX009 (ip), vehicle: saline with Tween-80 108 % of control | dose: 300.0 mg/kg/injection, schedule: Q01DX009 (ip), vehicle: saline with Tween-80 101 % of control

CC1=C(/C=C/C(C)=C/C=C/C(C)=C/C(=O)O)C(C)(C)CCC1
inactive: dose: 0.5 mg/kg/injection, schedule: Q01DX009 (ip), vehicle: saline 107 % of control | dose: 1.0 mg/kg/injection, schedule: Q01DX009 (ip), vehicle: saline 110 % of control | dose: 2.0 mg/kg/injection, schedule: Q01DX009 (ip), vehicle: saline 100 % of control | dose: 4.0 mg/kg/injection, schedule: Q01DX009 (ip), vehicle: saline 93 % of control and 94 % of control | dose: 8.0 mg/kg/injection, schedule: Q01DX009 (ip), vehicle: saline 98 % of control and 100 % of control | dose: 16.0 mg/kg/injection, schedule: Q01DX009 (ip), vehicle: saline 108 % of control | dose: 32.0 mg/kg/injection, schedule: Q01DX009 (ip), vehicle: saline 104 % of control

CC(C)CC(NC(=O)C(O)C(N)Cc1ccccc1)C(=O)O (centres undefined)
inactive: dose: 10.0 micrograms/kg/injection, schedule: Q01DX005 (ip), vehicle: saline 101 % of control

CN(C)c1nc(N(C)C)nc(N(C)C)n1
inactive: [1] 104 % of control | [2] 90 % of control and 103 % of control | [3] 97 % of control and 102 % of control | [6] 99 % of control

O=[N+]([O-])c1ccc(Cl)c([N+](=O)[O-])c1
inactive: dose: 5.0 mg/kg/injection, schedule: Q01DX009 (ip), vehicle: saline with Tween-80 102 % of control | dose: 6.25 mg/kg/injection, schedule: Q02DX009 (ip), vehicle: water 117 % of control | dose: 10.0 mg/kg/injection, schedule: Q01DX009 (ip), vehicle: saline with Tween-80 100 % of control | dose: 12.5 mg/kg/injection, schedule: Q02DX009 (ip), vehicle: water 113 % of control | dose: 20.0 mg/kg/injection, schedule: Q01DX009 (ip), vehicle: saline with Tween-80 93 % of control | dose: 25.0 mg/kg/injection, schedule: Q02DX009 (ip), vehicle: water 113 % of control | dose: 40.0 mg/kg/injection, schedule: Q01DX009 (ip), vehicle: saline with Tween-80 105 % of control | dose: 50.0 mg/kg/injection, schedule: Q02DX009 (ip), vehicle: water 107 % of control | dose: 80.0 mg/kg/injection, schedule: Q01DX009 (ip), vehicle: saline with Tween-80 111 % of control | dose: 100.0 mg/kg/injection, schedule: Q02DX009 (ip), vehicle: water 107 % of control

Nc1ccc(S(N)(=O)=O)cc1
inactive: [2] 95 % of control | [3] 108 % of control and 115 % of control | [6] 119 % of control | [7] 105 % of control and 119 % of control | [8] 102 % of control and 113 % of control
